Measured values: ChEMBL document CHEMBL4130439, “Oral Ingestion and Intraventricular Injection of Curcumin Attenuates the Effort-Related Effects of the VMAT-2 Inhibitor Tetrabenazine: Implications for Motivational Symptoms of Depression” (2017)
Activity calls are given as the source filed them. The calls are words filed in the database; no cut-off is given here.

Experiments:
[1] = test system: Rattus norvegicus; experiment: Inhibition of effort-related effects of TBZ in Harlan Sprague Dawley rat assessed as decrease in TBZ-induced chow intake at 160 mg/kg, po administered 3 hrs prior to testing followed by coadministration with TBZ at 90 mins prior to testing measured for 30 mins; format: functional, organism-based
[2] = test system: Rattus norvegicus; experiment: Ratio of compound effect for TBZ-induced chow intake in icv administered Harlan Sprague Dawley rat to compound effect for TBZ-induced chow intake in orally administered Harlan Sprague Dawley rat; format: functional
[3] = test system: Rattus norvegicus; experiment: Inhibition of effort-related effects of TBZ in Harlan Sprague Dawley rat assessed as decrease in TBZ-induced chow intake at 80 to 160 mg/kg, po administered 2 hrs prior to testing followed by TBZ addition at 90 mins prior to testing measured for 30 mins; format: functional, organism-based
[4] = test system: Rattus norvegicus; experiment: Inhibition of effort-related effects of TBZ in 90 mins TBZ pretreated Harlan Sprague Dawley rat assessed as increase in TBZ-induced lever presses at 4 to 8 microg, icv administered via chronic indwelling cannulae 20 mins prior to testing measured for 30 mins; format: functional, organism-based
[5] = test system: Rattus norvegicus; experiment: Ratio of compound effect for TBZ-induced lever presses in icv administered Harlan Sprague Dawley rat to compound effect for TBZ-induced lever presses in orally administered Harlan Sprague Dawley rat; format: functional
[6] = test system: Rattus norvegicus; experiment: Inhibition of effort-related effects of TBZ in Harlan Sprague Dawley rat assessed as increase in TBZ-induced lever presses at 80 to 160 mg/kg, po administered 2 hrs prior to testing followed by TBZ addition at 90 mins prior to testing measured for 30 mins; format: functional, organism-based
[7] = test system: Rattus norvegicus; experiment: Inhibition of effort-related effects of TBZ in 90 mins TBZ pretreated Harlan Sprague Dawley rat assessed as decrease in TBZ-induced chow intake at 4 to 8 microg, icv administered via chronic indwelling cannulae 20 mins prior to testing measured for 30 mins; format: functional, organism-based
[8] = test system: Rattus norvegicus; experiment: Inhibition of effort-related effects of TBZ in Harlan Sprague Dawley rat assessed as increase in TBZ-induced lever presses at 160 mg/kg, po administered 3 hrs prior to testing followed by coadministration with TBZ at 90 mins prior to testing measured for 30 mins; format: functional, organism-based

## COc1cc(/C=C/C(=O)CC(=O)/C=C/c2ccc(O)c(OC)c2)ccc1O [CURCUMIN]
[1]
  inhibition: Active
[2]
  Ratio: >1000
[3]
  inhibition: inactive
[4]
  inhibition: Active
[5]
  Ratio: >1000
[6]
  inhibition: inactive
[7]
  inhibition: Active
[8]
  inhibition: Active
